Reference: patent US11077196B2, “Abuse-deterrent pharmaceutical composition” (priority 2016, dated 2021)
Entries after “also recorded” stand apart in the source; their conditions may differ.

Assays:
[1] = system: laccase; assay: Laccase mediator system (LMS) and oxycodone: oxygen concentration measurement; format: biochemical; conditions: 10 units laccase ml−1, 1000 mgL−1 oxycodone; for oxygen concentration after the addition of oxycodone, per mediator: mediator 2 mM
Method: During the reaction oxygen acts as electron acceptor and is reduced to water by laccases while the mediators are oxidized. The concentration of oxygen was measured as described above. Oxygen is consumed until the mediator is fully oxidized. […] The second step of the reaction is initiated by addition of the target substrate, which is consequently oxidized by the mediators.
In the present experiments the final reaction mixtures contained 0.2 to 6 mM mediator, 1-10 units of laccase per ml and 100-3000 mg L^−1 opioid.
The different mediators were used at concentrations of 2 mM with 10 units laccase ml^−1 and 1000 mgL^−1 oxycodone. The first drop in oxygen concentration represents the oxidation of the respective mediators with the laccase, the second drop—which took place just after the addition of the opioid—was due to the subsequent oxidation of the opioid.

[2] = system: laccase; assay: LMS and oxycodone: HPLC-MS/TOF measurements; conditions: laccase mediator system
[3] = system: horseradish peroxidase and a laccase originating from Myceliophthora thermophila (MtL); assay: Inactivation of oxycodone with an enzyme system consisting of peroxidase/laccase; format: biochemical; conditions: HRP 10 U/ml, Glucose Oxidase 20 U/ml, Laccase 25 U/ml, Oxycodone 10 mg/ml, Glucose 10 mg/ml, distilled water, room temperature
Source text: In the present example, the development of an appropriate enzyme system to eliminate opioids from solution can be shown. A peroxidase is used to produce an hydroxyl group in oxycodone while the such “activated” molecule is further transformed by the laccase. Moreover, optimized reaction conditions for effective conversion of the opioid solution preventing administration through injection are provided. Finally, the function of the system is verified by showing the inactivation of the opioid destroying enzymes proteolytically when the drugs are administered as foreseen.
To achieve the elimination of oxycodone, the following enzymes are used: the horseradish peroxidase and a laccase originating from Myceliophthora thermophila (MtL). Glucose Oxidase (GOD, from Aspergillus niger) is used to generate H2O2 which is required for the peroxidase reaction.
To determine whether the laccase act on activated oxycodone an optical oxygen sensor is used. Laccases use oxygen as electron acceptor, consequently the oxygen concentration decreases upon substrate oxidation.
500 μL samples are taken and put into 500 μL of methanol (MeOH) to precipitate the enzyme. The solution is centrifuged using Vivaspin 500 and transferred to an HPLC vial.

[4] = system: laccase from Myceliophthora thermophila (MtL); assay: Oxygen measurement of laccase catalysed oxidation of opioids (MtL); format: biochemical; conditions: MtL 10 U/ml, substrate 2 mg/ml, distilled water, room temperature, optical oxygen sensor
Source text: (§1) Two different laccases were used to achieve elimination of opioids—one of them originated from Trametes villosa (TvL), the other one from Myceliophthora thermophila (MtL).

[5] = system: laccase from Trametes villosa (TvL); assay: Oxygen measurement of laccase catalysed oxidation of opioids (TvL); format: biochemical; conditions: TvL 10 U/ml, substrate 2 mg/ml, distilled water, room temperature, optical oxygen sensor
Source text: as §1

[6] = system: laccase; assay: LMS and methadone: oxygen measurements; format: biochemical
[7] = system: laccase; assay: Thin layer chromatography of enzymatic conversion; format: biochemical; conditions: samples at 2, 10, 30, 60, 120 minutes of enzymatic reaction
[8] = target: T1, pepsin (Sus scrofa, UniProt P00791); assay: Pepsin digestion assay in simulated gastric fluid with SDS-PAGE analysis; format: in vitro ADME; conditions: SGF pH 1.2 with pepsin, 10000 Units pepsin per 1 mg test protein, 37° C., samples at 0, 0.5, 15 minutes
T1 construct: purchased Sigma-Aldrich (US) P7000
T1 sequence (P00791 60-385): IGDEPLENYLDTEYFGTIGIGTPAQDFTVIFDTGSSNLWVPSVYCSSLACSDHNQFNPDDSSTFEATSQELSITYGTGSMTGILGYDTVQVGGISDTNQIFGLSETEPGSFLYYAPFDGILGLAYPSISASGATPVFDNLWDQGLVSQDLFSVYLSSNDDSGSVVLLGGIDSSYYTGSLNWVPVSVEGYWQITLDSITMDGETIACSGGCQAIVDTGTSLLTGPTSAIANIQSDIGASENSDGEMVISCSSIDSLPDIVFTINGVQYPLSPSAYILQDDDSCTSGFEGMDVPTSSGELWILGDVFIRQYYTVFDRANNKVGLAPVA
Method: SGF contains 0.084 M HCl, 0.035 M NaCl, 4000 U of pepsin per reaction mixture and has a pH level of 1.2 according to the United States Pharmacopeia (1995). A ratio of 10000 Units of pepsin activity to 1 mg of test protein was used throughout the assay, which is based on an evaluation of the average activity of pepsin recommended in the United States Pharmacopeia (24th edition, 2000) with some modifications. Pepsin (ref. #P7000) was purchased from Sigma-Aldrich (US). All proteins that were used were dissolved in 50 mM Tris-HCl (pH 9.5) at a concentration of 5 mg mL^−1. The reaction mixture contained 1.52 mL of SGF preheated to 37° C. before the addition of 0.08 mL of protein solution (Thomas et al., 2004). The mixture was placed into a thermomixer at 37° C. and was shaken at 400 rpm. For denaturating SDS-polyacrylamide gel electrophoresis analysis (SDS-PAGE) samples of 160 μl were removed at 0 minutes, 0.5 minutes, and 15 minutes after initiation.
SDS-PAGE was performed to analyze and visually inspect stained protein bands whether the protein band is still intact or fragmented after the digestion assay. […]
Each 160 μl of the digestion samples was quenched by adding 56 μl of 200 mM NaHCO3 as neutralization step and 56 μl 4× Laemmli (Laemmli 1970) buffer for electrophoresis. Samples were immediately heated up to 99° C. for 10 minutes and analyzed directly or stored at −20° C. […]

[9] = system: Humicola insolens cutinase (HiC); format: biochemical
[10] = target: T2, Thermobifida cellulosilytica cutinase 1 (THC) (Thermobifida cellulosilytica, UniProt E9LVH8); format: biochemical
T2 construct: made in house
T2 sequence (E9LVH8 1-262): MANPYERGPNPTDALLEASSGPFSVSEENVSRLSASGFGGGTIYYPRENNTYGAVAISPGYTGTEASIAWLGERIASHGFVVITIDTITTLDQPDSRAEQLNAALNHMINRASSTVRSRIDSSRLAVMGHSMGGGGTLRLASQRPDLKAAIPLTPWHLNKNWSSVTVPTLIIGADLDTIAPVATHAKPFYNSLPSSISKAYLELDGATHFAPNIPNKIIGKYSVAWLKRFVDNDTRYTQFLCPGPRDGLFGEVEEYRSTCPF

[11] = system: laccase MTL; assay: Polymerization of morphine with laccase from Myceliophthora thermophila (high concentrations); conditions: 50 mM sodium phosphate buffer pH 7, MTL 10 U to 100 U

## COc1ccc2c3c1O[C@H]1C(=O)CC[C@@]4(O)[C@@H](C2)N(C)CC[C@]314 [oxycodone, 4,5[alpha]-epoxy-14-hydroxy-3-methoxy-17-methyl-6-morphinanone]
[1]; mediators vanillin, ethylvanillin, syringic acid 2 mM
  oxidation of oxycodone in the laccase mediator system: oxidation of oxycodone
[2]; mediators 2 mM, vanillin also 6 mM
  oxycodone concentration (HPLC-MS/TOF): decrease in oxycodone concentration
[3]
  enzymatic conversion of oxycodone (oxygen consumption measurements, HPLC-MS): successfully converted; also recorded: converted to a product which precipitated
[4]
  oxygen concentration in solution (laccase oxidation of the opioid): not capable of converting oxycodone
[5]
  oxygen concentration in solution (laccase oxidation of the opioid): not capable of converting oxycodone

## COc1cc(C(=O)O)cc(OC)c1O [syringic acid]
[1]
  oxygen concentration after the addition of oxycodone, per mediator: showed a drop in oxygen concentration

## CCC(=O)C(CC(C)N(C)C)(c1ccccc1)c1ccccc1 (racemic) [methadone, (±)-6-dimethylamino-4,4-diphenol-3-heptanone]
[6]; mediator ABTS
  oxygen concentration in LMS with methadone: decline in oxygen concentration

## CC[C@@H](c1cccc(O)c1)[C@@H](C)CN(C)C [tapentadol]
[7]
  time after which new dots appear on the TLC plate (new product formed): 2 min
  time after which the reference dot disappears on TLC (all converted): 120 min
[4]
  oxygen concentration in solution (laccase oxidation of the opioid): much slower
[5]
  oxygen concentration in solution (laccase oxidation of the opioid): drops to almost 0% oxygen

## CCOc1cc(C=O)ccc1O [ethylvanillin]
[1]
  oxygen concentration after the addition of oxycodone, per mediator: showed a drop in oxygen concentration

## HRP: horse radish peroxidase
[8]
  proteolytic degradation of the enzyme (protein band on SDS-PAGE): very susceptible to proteolytic degradation

## COc1cc(C=O)ccc1O [vanillin]
[1]
  oxygen concentration after the addition of oxycodone, per mediator: showed a drop in oxygen concentration

## CCn1c(=NN=c2sc3cc(S(=O)(=O)O)ccc3n2CC)sc2cc(S(=O)(=O)O)ccc21 [ABTS, 2,2′-azino-bis-(3-ethylbenzthiazoline-6-sulfonic acid)]
[6]; mediators tested incl. syringic acid, TEMPO, syringol, ABTS
  effect of the mediator in LMS with methadone (oxygen measurement): best effect

## CC(=O)Oc1ccc2c3c1O[C@H]1[C@@H](OC(C)=O)C=C[C@H]4[C@@H](C2)N(C)CC[C@@]341 [diacetylmorphine]
[9]
  DAM concentration: declines
  morphine concentration formed from DAM: only increased in the samples that were incubated at 50 °C
  product formed from DAM at lower temperatures: only monoacetylmorphine is produced
[9]; pH 7
  diacetylmorphine hydrolyzed (total acetate yield, HPLC/RI): more than 50%
[10]
  DAM concentration: declines
  morphine concentration formed from DAM: only increased in the samples that were incubated at 50 °C
  product formed from DAM at lower temperatures: only monoacetylmorphine is produced
[10]; pH 7
  diacetylmorphine hydrolyzed (total acetate yield, HPLC/RI): more than 50%

## O=C(O)c1cc(O)c(O)c(O)c1 [gallic acid]
[1]
  oxygen concentration after the addition of oxycodone, per mediator: no apparent effect
[2]
  effect of the mediator on oxycodone (MS-TOF analysis): no apparent effect

## CN1CC[C@]23c4c5ccc(O)c4O[C@H]2[C@@H](O)C=C[C@H]3[C@H]1C5 [morphine, 4,5[alpha]-epoxy-17-methyl-7-morphinen-3,6[alpha]-diol]
[11]
  faster degradation of morphine with 10 times more laccase: ~10 times
[7]
  time after which new dots appear on the TLC plate (new product formed): 2 min
